Entries after “also recorded” stand apart in the source; their conditions may differ.
Legend:
Assay type in all cases: cell-based
[1] = molecular target: T1, HttQ103P-EGFP (Homo sapiens, UniProt P42858); assay: Aggregation of HttQ103P-EGFP in inducible PC-12 cells (visual counts by fluorescent microscopy)
T1 construct: expressed in transfected cells; host or cells: PC-12 cells, stably transfected, pIND construct induced with 5 µM ponasterone
Procedure: (§1) Inducible PC-12 cells. PC-12 cells stably transfected with pIND constructs containing HttQ103P-EGFP. The cells upon stimulation with 5 μM ponasterone for 48 hrs express poly-Q protein with a EGFP carboxy-terminal epitope tag (Apostol, B. et al., PNAS 100, 5950-5955, 2003). Chemical Compound screen in PC-12 cells. Cells were plated in 6 well plates and grown overnight, then treated with 5 μM ponasterone for 48 hrs in the presence and absence of cystamine bitartrate or scyllo-inositol. Both were dissolved in water, and added directly to cultures at a final concentration of 1-50 μM and aggregation calculated. Visual counts of aggregates and EGFP-positive cells were performed using fluorescent microscopy. At least 300 cells were counted from 5-6 fields in three wells in each of three independent experiments. Aggregation is expressed as the percentage of cells with aggregates versus total number of EGFP-positive cells. Chemical compound was assessed for cellular toxicity by evaluating cell morphology, trypan blue exclusion and cell viability. Protein Expression. Cells were plated in 6 well plates and grown overnight, then treated with 5 μM ponasterone for 48 hrs in the presence and absence of cystamine bitartrate or scyllo-inositol. Cells were lysed in hypotonic solution containing 20 mM HEPES ph 7.5, 5 mM NaCl, 10 mM NaF, 2 mM EDTA, 1% Nonidet P-40, 1 mM sodium, orthovanadate, and protease inhibitors. Protein concentration was determined using the Bradford assay and 100 μg of protein was used for western blotting. Primary antibody to poly-glutamine was used to detect HttQ103, while GAPDH was used as an internal house-keeping standard. Westerns were scanned and densitometry was used to quantify PolyQ expression.
A hallmark of polyglutamine diseases is the accumulation of intracellular aggregates in the cytosol and nucleus of neurons. Therefore, the inducible PC-12 cell lines were utilized to address the question of inhibition of HttQ103P-EFGP aggregation using scyllo-inositol and a previously identified aggregation inhibitor, cystamine bitartrate. Aggregates are readily distinguished from soluble Htt, by intense small aggregate formation versus diffuse cellular staining pattern of soluble Htt (FIG. 1). Simultaneously with induction of HttQ103P-EFGP expression, scyllo-inositol was added to the cells in a final concentration range from 0-100 μM, with 50 μM cystamine bitartrate as a positive control. Cells were photographed using fluorescence microscopy and total cells expressing EFGP counted, and cells containing aggregates. Efficacy of treatment was determined by a reduction in the percentage of cells containing EGFP aggregates (FIG. 1, 2).

[2] = molecular target: T2, Htt103Q-EGFP (Homo sapiens, UniProt P42858); assay: Western blot of poly-Q protein expression in inducible PC-12 cells, normalized to GAPDH; conditions: for Htt103Q-EGFP protein expression level (western blot): cystamine bitartrate treatment
T2 construct: expressed in transfected cells; host or cells: PC-12 cells, stably transfected, pIND construct induced with 5 µM ponasterone
T2 sequence (P42858 with tags, fused parts or gaps limits assumed): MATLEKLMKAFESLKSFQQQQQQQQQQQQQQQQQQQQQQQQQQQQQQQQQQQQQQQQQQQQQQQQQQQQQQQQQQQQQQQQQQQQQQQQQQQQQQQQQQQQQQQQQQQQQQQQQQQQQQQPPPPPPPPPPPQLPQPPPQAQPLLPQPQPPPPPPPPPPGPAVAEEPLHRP
Procedure: as §1
In order to examine changes in Htt103Q-EGFP protein concentration as a function of scyllo-inositol treatment, western blots were used (FIG. 3, 4). Cells were treated as above and then harvested for western blot analyses using a poly-glutamine specific antibody, and normalized to the housekeeping protein, GAPDH (FIG. 3). Blots were scanned and densitometry of each lane performed, to normalize for variations in protein loading pixels were normalized to those of GAPDH.

[3] = tested on: PC-12 cells
Procedure: as §1, with “Visual counts of aggregates and EGFP-positive cells were performed using fluorescent microscopy.” left out, “Protein Expression. Cells were plated in 6 well plates and grown overnight, then treated with 5 μM ponasterone for 48 hrs in the presence and absence of cystamine bitartrate or scyllo-inositol. Cells were lysed in hypotonic solution containing 20 mM HEPES ph 7.5, 5 mM NaCl, 10 mM NaF, 2 mM EDTA, 1% Nonidet P-40, 1 mM sodium, orthovanadate, and protease inhibitors.” left out, “Primary antibody to poly-glutamine was used to detect HttQ103, while GAPDH was used as an internal house-keeping standard.” left out
A hallmark of polyglutamine diseases is the accumulation of intracellular aggregates in the cytosol and nucleus of neurons. […] Cells were photographed using fluorescence microscopy and total cells expressing EFGP counted, and cells containing aggregates. […]

T1 sequence (P42858 with tags, fused parts or gaps limits assumed): as above

| Htt103Q-EGFP protein expression level (western blot) ([2]; listed as Cystamine bitratrate) | Concentrations at which aggregation of poly-Q repeat Htt is decreased ([1]; inducible PC-12 cells) | Lowest concentration with significant decrease in the formation of aggregates ([1]; inducible PC-12 cells, FIG. 2) | Concentrations at which poly-Q (Htt) protein is decreased / mutant Htt degradation is enhanced ([2]; inducible PC-12 cells, western blot) | poly-Q protein expression ([2]; scyllo-inositol up to 10 μM concentration) | SMILES | Aggregation (percentage of cells with aggregates versus total EGFP-positive cells) ([1]; 50 μM cystamine bitartrate as positive control, added simultaneously with induction) | Htt103Q-EGFP protein expression level (western blot) [2] | Aggregation (percentage of cells with aggregates versus total EGFP-positive cells) ([1]; scyllo-inositol 0-100 μM added simultaneously with induction, 5 μM ponasterone 48 hrs) | Aggregation (percentage of cells with aggregates versus total EGFP-positive cells) ([1]; scyllo-inositol 0-100 μM added simultaneously with induction, 5 μM ponasterone 48 hrs, listed as Scyllo-inositol) | Htt103Q-EGFP protein concentration (western blot, densitometry) ([2]; scyllo-inositol concentration series, normalized to GAPDH) | Cell viability, trypan blue exclusion assay [3] | Morphological examination of cells for changes associated with toxicity [3] |
| --- | --- | --- | --- | --- | --- | --- | --- | --- | --- | --- | --- | --- |
| did not alter poly-Q protein expression | – | – | – | – | NCCSSCCN.O=C(O)C(O)C(O)C(=O)O (stereo not drawn) [cystamine bitartrate, reference compound] | inhibits aggregate formation; also recorded: aggregated poly-Q is decreased; also recorded: decreased aggregation of poly-Q | no effect on Htt103 cellular protein concentration; also recorded: did not change protein expression levels | – | – | – | – | – |
| – | 1 to 100 µM | 1 µM | 25 to 100 µM | did not alter poly-Q protein expression | O[C@H]1[C@H](O)[C@@H](O)[C@H](O)[C@@H](O)[C@@H]1O [scyllo-inositol] | – | – | concentration dependent effect of decreased aggregation | concentration dependent decrease in the formation of aggregates | concentration dependant decrease in Htt protein; also recorded: decreased the protein concentration | no effect on cell viability | did not detect changes associated with toxicity |
